Data as given in ChEMBL document CHEMBL5131392, “A novel ICG-labeled cyclic TMTP1 peptide dimer for sensitive tumor imaging and enhanced photothermal therapy in vivo” (Eur J Med Chem, 2022).
One block for each compound: values may come before it. Activity calls are given as the source filed them. The calls are words filed in the database; no cut-off is given here. Bridge positions count the residues as written; N and C are the ends. Square brackets hold non-standard residues; d marks the D form. Peptide text beside a SMILES is read from it. I, II: the chains in the order shown. * marks the point of attachment. X1 = CC1(C)C(/C=C/C=C/C=C/C=C2/N(CCCCCC(=O)*)c3ccc4ccccc4c3C2(C)C)=[N+](CCCCS(=O)(=O)[O-])c2ccc3ccccc3c21; PEG4 = NCCOCCOCCOCCOCCC(=O)O

What was measured:
[1] = MRT 0 to t in Sprague-Dawley rat at 100 uM, iv measured up to 24 hrs by IVIS spectrum imaging analysis; format: ADME, organism-based; settings: in vivo
[2] = AUC 0 to t in Sprague-Dawley rat at 100 uM, iv measured up to 24 hrs by IVIS spectrum imaging analysis; format: ADME, organism-based; design: time < 24 hrs, dose 100 µM, route iv; settings: in vivo
4T1 [3] = assay: Upregulation of XPNPEP expression in mouse 4T1 cells by Western blot analysis; format: functional, cell-based
[4] = Drug accumulation in BALB/c mouse liver assessed as increase in fluorescence intensity at 30 uM, iv measured after 30 mins by NIR fluorescence imaging analysis; format: ADME, organism-based; settings: in vivo, 0.5 h
[5] = Biodistribution in BALB/c mouse assessed as increase in fluorescence signal at 30 uM, iv measured after 30 mins by NIR fluorescence imaging analysis; format: ADME, organism-based; settings: in vivo, 0.5 h
[6] = Half life in Sprague-Dawley rat at 100 uM, iv measured up to 24 hrs by IVIS spectrum imaging analysis; format: ADME, organism-based; settings: in vivo
[7] = Cmax in Sprague-Dawley rat at 100 uM, iv measured up to 24 hrs by IVIS spectrum imaging analysis; format: ADME, organism-based; design: time < 24 hrs, dose 100 µM, route iv; settings: in vivo
[8] = Toxicity in BALB/c mouse allografted with mouse 4T1 cells assessed as histopathological change in lung at 100 uM, iv measured after 12 hrs followed by 2.5 W/cm2 NIR laser irradiation for 3 mins by hematoxylin and eosin staining based analysis; format: organism-based; settings: in vivo
[9] = Toxicity in BALB/c mouse allografted with mouse 4T1 cells assessed as histopathological change in spleen at 100 uM, iv measured after 12 hrs followed by 2.5 W/cm2 NIR laser irradiation for 3 mins by hematoxylin and eosin staining based analysis; format: organism-based; settings: in vivo
[10] = Drug uptake in tumor of mouse 4T1 cells allografted in BALB/c mouse assessed as increase in ratio of fluorescence signal in tumor to normal tissue at 30 uM, iv measured after 12 to 48 hrs by NIR fluorescence imaging analysis; format: ADME, organism-based, Neoplasm; settings: in vivo, time 12-48 hrs
4T1 [11] = assay: Induction of apoptosis in mouse 4T1 cells allografted in BALB/c mouse assessed as increase in total apoptotic cells at 100 uM, iv measured after 12 hrs followed by 2.5 W/cm2 NIR laser irradiation for 3 mins by hematoxylin and eosin staining based analysis; format: functional, organism-based
[12] = Drug uptake in tumor of mouse 4T1 cells allografted in BALB/c mouse assessed as increase in fluorescence signal at 30 uM, iv measured after 12 hrs by NIR fluorescence imaging analysis; format: ADME, organism-based, Neoplasm; settings: in vivo
[13] = Drug uptake in tumor of mouse 4T1 cells allografted in BALB/c mouse assessed as increase in fluorescence signal at 30 uM, iv measured after 12 to 48 hrs by IVIS spectrum in vivo imaging analysis; format: ADME, organism-based, Neoplasm; settings: time 12-48 hrs
[14] = Toxicity in BALB/c mouse allografted with mouse 4T1 cells assessed as histopathological change in heart at 100 uM, iv measured after 12 hrs followed by 2.5 W/cm2 NIR laser irradiation for 3 mins by hematoxylin and eosin staining based analysis; format: organism-based; settings: in vivo
4T1 [15] = assay: Cytotoxicity against mouse 4T1 cells assessed as cell viability at higher concentration incubated for 24 hrs by CCK-8 assay relative to control; format: functional
[16] = Drug accumulation in BALB/c mouse kidney assessed as increase in fluorescence intensity at 30 uM, iv measured after 2 hrs by NIR fluorescence imaging analysis; format: ADME, organism-based; settings: in vivo
[17] = Toxicity in BALB/c mouse allografted with mouse 4T1 cells assessed as histopathological change in kidney at 100 uM, iv measured after 12 hrs followed by 2.5 W/cm2 NIR laser irradiation for 3 mins by hematoxylin and eosin staining based analysis; format: organism-based; settings: in vivo
4T1 [18] = assay: Antitumor activity against mouse 4T1 cells allografted in BALB/c mouse assessed as inhibition of tumor growth at 100 uM, iv treated for 12 hrs followed by 2.5 W/cm2 NIR laser irradiation for 3 mins and measured every 2 days; format: functional, organism-based; settings: time 2.0 day
[19] = Drug uptake in lymph node of mouse 4T1 cells allografted in BALB/c mouse assessed as increase in fluorescence signal at 30 uM, iv measured after 24 to 48 hrs by NIR fluorescence imaging analysis; format: ADME, organism-based; settings: in vivo, time 24-48 hrs
[20] = Drug uptake in tumor of mouse 4T1 cells allografted in BALB/c mouse assessed as XPNPEP2 expression by […] based analysis; format: ADME, Neoplasm
[21] = Toxicity in BALB/c mouse allografted with mouse 4T1 cells assessed as change in body weight at 100 uM, iv treated for 12 hrs followed by 2.5 W/cm2 NIR laser irradiation for 3 mins and measured every 2 days; format: organism-based; settings: in vivo, 48 h, time 2 day
4T1 [22] = assay: Induction of apoptosis in mouse 4T1 cells allografted in BALB/c mouse assessed as increase in total necrotic cells at 100 uM, iv measured after 12 hrs followed by 2.5 W/cm2 NIR laser irradiation for 3 mins by hematoxylin and eosin staining based analysis; format: functional, organism-based
4T1 [23] = assay: Induction of apoptosis in mouse 4T1 cells allografted in BALB/c mouse assessed as increase in total apoptotic cells at 100 uM, iv measured after 12 hrs followed by 2.5 W/cm2 NIR laser irradiation for 3 mins by TUNEL staining based analysis; format: functional, organism-based
[24] = Drug uptake in mouse 4T1 cells assessed as increase in fluorescence signal measured after 1 hr by flow cytometry analysis; format: ADME, cell-based; settings: 4t1, 1 h
[25] = Drug uptake in lymph node of mouse 4T1 cells allografted in BALB/c mouse assessed as increase in ratio of fluorescence signal in tumor lymph node to normal lymph node at 30 uM, iv measured up to 48 hrs by NIR fluorescence imaging analysis; format: ADME, organism-based; settings: in vivo
4T1 [26] = assay: Antitumor activity in mouse 4T1 cells allografted in BALB/c mouse assessed as increase in temperature of tumor site at 100 uM, iv measured after 12 hrs followed by 2.5 W/cm2 NIR laser irradiation for 3 mins by infrared thermal imaging analysis; format: functional
[27] = Toxicity in BALB/c mouse allografted with mouse 4T1 cells assessed as histopathological change in liver at 100 uM, iv measured after 12 hrs followed by 2.5 W/cm2 NIR laser irradiation for 3 mins by hematoxylin and eosin staining based analysis; format: organism-based; settings: in vivo

- MRT last at 24 h, 100 µM [1]: 5.77 h
- AUC(0-t) at 24 h, 100 µM [2]: 1.29 µM·h
- Drug uptake [4]: Active
- Drug uptake [5]: Active
- half-life at 100 µM [6]: 5.9 h
- Cmax at 100 µM [7]: 212 nM
- T/C [10]: 40
- Drug uptake [12]: Active
- Drug uptake [13]: Active
- Drug uptake [16]: Active
- Drug uptake [19]: Active
- Drug uptake [24]: Active
- Drug uptake [25]: Active
Compound: CC(C)[C@@H]1NC(=O)[C@H](CC(N)=O)NC(=O)CNC(=O)[C@@H](NC(=O)CNC(=O)CCOCCOCCOCCOCCNC(=O)CC[C@H](NC(=O)CCCCCN2/C(=C/C=C/C=C/C=C/C3=[N+](CCCCS(=O)(=O)[O-])c4ccc5ccccc5c4C3(C)C)C(C)(C)c3c2ccc2ccccc32)C(=O)NCCOCCOCCOCCOCCC(=O)NCC(=O)N[C@H]2CSSC[C@@H](C(=O)O)NC(=O)CNC(=O)[C@H](CCC(N)=O)NC(=O)[C@H](CCCNC(=N)N)NC(=O)[C@H](C(C)C)NC(=O)[C@H](C(C)C)NC(=O)[C@H](CC(N)=O)NC(=O)CNC2=O)CSSC[C@@H](C(=O)O)NC(=O)CNC(=O)[C@H](CCC(N)=O)NC(=O)[C@H](CCCNC(=N)N)NC(=O)[C@H](C(C)C)NC1=O (I: X1-E[PEG4]GCGNVVRQGC-OH / II: [PEG4]GCGNVVRQGC-OH; amide I:1-II:N; disulfide I:4-I:12, II:3-II:11)
- Activity (4T1 [3]): Active
- Activity [8]: Non-Toxic
- Activity [9]: Non-Toxic
- Activity (4T1 [11]): Active
- Activity [14]: Non-Toxic
- cell viability (4T1 [15]): >90%
- Activity [17]: Non-Toxic
- Activity (4T1 [18]): Active
- Drug uptake [20]: Active
- Activity [21]: Non-Toxic
- Activity (4T1 [22]): Active
- Activity (4T1 [23]): Active
- T (4T1 [26]): 51 °C
- Activity [27]: Non-Toxic

- MRT last at 24 h, 100 µM [1]: 0.251 h
- AUC(0-t) at 24 h, 100 µM [2]: 0.0175 µM·h
- half-life at 100 µM [6]: 0.4 h
- Cmax at 100 µM [7]: 57.6 nM
Compound: CC1(C)C(/C=C/C=C/C=C/C=C2\N(CCCCS(=O)(=O)[O-])c3ccc4ccccc4c3C2(C)C)=[N+](CCCCS(=O)(=O)[O-])c2ccc3ccccc3c21.[Na+] [INDOCYANINE GREEN]
- T (4T1 [26]): 40 °C

- Drug uptake [13]: Active
Compound: CC(C)[C@@H]1NC(=O)[C@H](CC(N)=O)NC(=O)CNC(=O)[C@@H](NC(=O)CNC(=O)CCOCCOCCOCCOCCNC(=O)CCCCCN2/C(=C/C=C/C=C/C=C/C3=[N+](CCCCS(=O)(=O)[O-])c4ccc5ccccc5c4C3(C)C)C(C)(C)c3c2ccc2ccccc32)CSSC[C@@H](C(=O)O)NC(=O)CNC(=O)[C@H](CCC(N)=O)NC(=O)[C@H](CCCNC(=N)N)NC(=O)[C@H](C(C)C)NC1=O ({X1-PEG4}-GCGNVVRQGC-OH; disulfide 2-10)
- Activity (4T1 [18]): Active
- T (4T1 [26]): 47 °C
